Test results published in patent US11453683B1, “KRas G12D inhibitors” (Mirati Therapeutics, Inc., priority 2019, dated 2022).
pIC50: −log10 of the molar value. Counter-ions that a name gives are not always drawn.

These compounds were tested on KRas G12D-mediated phosphorylation of ERK (assay: Inhibition of KRas G12D-mediated phosphorylation of ERK in AGS cells). Details: Homo sapiens; AGS cells expressing G12D, 3 hours, phospho-ERK normalized to GAPDH.
Assay type: cell-based
Summary of the method: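 Fixed, methanol-permeabilized; phospho-ERK (Thr202/Tyr204) by in-cell immunofluorescence normalized to GAPDH. Percent of DMSO control, IC50 by 4-parameter fit.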
`Fc1c(-c2cccc3cccc(Cl)c23)ncc2c(N3C[C@H]4CC[C@@H](C3)N4)nc(OCCCN3C[C@@H]4C[C@H]3CO4)nc12` [Example 103, (1S,4S)-5-(3-((4-((1R,5S)-3,8-diazabicyclo[3.2.1]octan-3-yl)-7-(8-chloronaphthalen-1-yl)-8-fluoropyrido[4,3-d]pyrimidin-2-yl)oxy)propyl)-2-oxa-5-azabicyclo[2.2.1]heptane] was tested, and the pIC50 was < 4.78.
In the case of `Oc1cc(-c2ncc3c(N4C[C@H]5CC[C@@H](C4)N5)nc(N4CCC4)nc3c2F)c2ccccc2c1` [Example 119, 4-(2-(azetidin-1-yl)-4-((1R,5S)-3,8-diazabicyclo[3.2.1]octan-3-yl)-8-fluoropyrido[4,3-d]pyrimidin-7-yl)naphthalen-2-ol 2,2,2-trifluoroacetate], the pIC50 was 5.43.
`Fc1c(-c2ccccc2C(F)(F)F)ncc2c(N3C[C@H]4CC[C@@H](C3)N4)nc(OCC34CCCN3CCC4)nc12` [Example 370, 4-((1R,5S)-3,8-diazabicyclo[3.2.1]octan-3-yl)-8-fluoro-2-((tetrahydro-1H-pyrrolizin-7a(5H)-yl)methoxy)-7-(2-(trifluoromethyl)phenyl)pyrido[4,3-d]pyrimidine] showed a pIC50 of 4.97.
In the case of `Oc1cc(Cl)c(C(F)(F)F)c(-c2ncc3c(N4C[C@H]5CC[C@@H](C4)N5)nc(OC[C@@]45CCCN4C[C@H](F)C5)nc3c2F)c1` [Example 284, 3-(4-((1R,5S)-3,8-diazabicyclo[3.2.1]octan-3-yl)-8-fluoro-2-(((2R,7aS)-2-fluorohexahydro-1H-pyrrolizin-7a-yl)methoxy)pyrido[4,3-d]pyrimidin-7-yl)-5-chloro-4-(trifluoromethyl)phenol], the pIC50 was 7.76.
`Oc1cc(-c2ncc3c(N4C[C@H]5CC[C@@H](C4)N5)nc(OCC45CCCN4CCC5)nc3c2F)c2c(Cl)c(F)ccc2c1` [Example 245, 4-(4-((1R,5S)-3,8-diazabicyclo[3.2.1]octan-3-yl)-8-fluoro-2-((hexahydro-1H-pyrrolizin-7a-yl)methoxy)pyrido[4,3-d]pyrimidin-7-yl)-5-chloro-6-fluoronaphthalen-2-ol] gave a pIC50 of 7.63.
In the case of `CCc1c(F)ccc2cc(O)cc(-c3ncc4c(N5C[C@H]6CC[C@@H](C5)N6)nc(OC[C@]56CCCN5[C@@H](COC(=O)N(C)C)CC6)nc4c3F)c12` [Example 441, ((3R,7aR)-7a-(((4-((1R,5S)-3,8-diazabicyclo[3.2.1]octan-3-yl)-7-(8-ethyl-7-fluoro-3-hydroxynaphthalen-1-yl)-8-fluoropyrido[4,3-d]pyrimidin-2-yl)oxy)methyl)hexahydro-1H-pyrrolizin-3-yl)methyl dimethylcarbamate], the pIC50 was 8.39.
`Cn1ccnc1CCOc1nc(N2C[C@H]3C[C@@H](O)[C@@H](C2)N3)c2cnc(-c3cccc4cccc(Cl)c34)c(F)c2n1` [Example 173, (1R,5R,6R)-3-(7-(8-chloronaphthalen-1-yl)-8-fluoro-2-(2-(1-methyl-1H-imidazol-2-yl)ethoxy)pyrido[4,3-d]pyrimidin-4-yl)-3,8-diazabicyclo[3.2.1]octan-6-ol] showed a pIC50 of 4.98.
With `Oc1cc(-c2ncc3c(N4C[C@H]5CC[C@@H](C4)N5)nc(OCCC(F)(F)F)nc3c2F)c2ccccc2c1` [Example 81, 4-(4-((1R,5S)-3,8-diazabicyclo[3.2.1]octan-3-yl)-8-fluoro-2-(3,3,3-trifluoropropoxy)pyrido[4,3-d]pyrimidin-7-yl)naphthalen-2-ol] the pIC50 was 5.08.
Compound `Cc1cccc(-c2ncc3c(N4C[C@H]5CC[C@@H](C4)N5)nc(OCC45CCCN4CCC5)nc3c2F)c1C` [Example 275, 4-((1R,5S)-3,8-diazabicyclo[3.2.1]octan-3-yl)-7-(2,3-dimethylphenyl)-8-fluoro-2-((hexahydro-1H-pyrrolizin-7a-yl)methoxy)pyrido[4,3-d]pyrimidine] has a pIC50 of 5.15.
`CN(C)C1CN(c2nc(N3C[C@H]4CC[C@@H](C3)N4)c3cnc(-c4cc(O)cc5ccccc45)c(F)c3n2)C1` [Example 120, 4-(4-((1R,5S)-3,8-diazabicyclo[3.2.1]octan-3-yl)-2-(3-(dimethylamino)azetidin-1-yl)-8-fluoropyrido[4,3-d]pyrimidin-7-yl)naphthalen-2-ol bis(2,2,2-trifluoroacetate)] was tested, and the pIC50 was 5.68.
`OCC#Cc1cccc2cccc(-c3ncc4c(N5C[C@H]6CC[C@@H](C5)N6)nc(OCC56CCCN5CCC6)nc4c3F)c12` [Example 193, 3-(8-(4-((1R,5S)-3,8-diazabicyclo[3.2.1]octan-3-yl)-8-fluoro-2-((tetrahydro-1H-pyrrolizin-7a(5H)-yl)methoxy)pyrido[4,3-d]pyrimidin-7-yl)naphthalen-1-yl)prop-2-yn-1-ol] gave a pIC50 of 5.07.
`Oc1cc(-c2ncc3c(N4C[C@H]5CC[C@@H](C4)N5)nc(OC[C@@]45CCCN4C[C@H](F)C5)nc3c2F)c2c(Cl)cccc2c1` [Example 251, 4-(4-((1R,5S)-3,8-diazabicyclo[3.2.1]octan-3-yl)-8-fluoro-2-(((2R,7aS)-2-fluorohexahydro-1H-pyrrolizin-7a-yl)methoxy)pyrido[4,3-d]pyrimidin-7-yl)-5-chloronaphthalen-2-ol] was tested, and the pIC50 was 7.99.
Work on `Fc1c(-c2ccccc2OC(F)(F)F)ncc2c(N3C[C@H]4CC[C@@H](C3)N4)nc(OCC34CCCN3CCC4)nc12` [Example 229, 4-((1R,5S)-3,8-diazabicyclo[3.2.1]octan-3-yl)-8-fluoro-2-((tetrahydro-1H-pyrrolizin-7a(5H)-yl)methoxy)-7-(2-(trifluoromethoxy)phenyl)pyrido[4,3-d]pyrimidine bis-hydrochloride] yielded a pIC50 of 4.95.
`OCCCOc1nc(N2C[C@H]3CC[C@@H](C2)N3)c2cnc(-c3cc(O)cc4ccccc34)c(F)c2n1` [Example 75, 4-(4-((1R,5S)-3,8-diazabicyclo[3.2.1]octan-3-yl)-8-fluoro-2-(3-hydroxypropoxy)pyrido[4,3-d]pyrimidin-7-yl)naphthalen-2-ol] was tested, and the pIC50 was < 4.78.
`Oc1cc(-c2ncc3c(N4C[C@H]5CC[C@@H](C4)N5)nc(OCCc4cccnc4)nc3c2F)c2ccccc2c1` [Example 106, 4-(4-((1R,5S)-3,8-diazabicyclo[3.2.1]octan-3-yl)-8-fluoro-2-(2-(pyridin-3-yl)ethoxy)pyrido[4,3-d]pyrimidin-7-yl)naphthalen-2-ol] gave a pIC50 of 5.51.
In the case of `O[C@H]1CN2CCC[C@]2(COc2nc(N3CC4CCC(C3)N4)c3cnc(-c4cccc5cccc(Cl)c45)c(F)c3n2)C1` (stereo in doubt) [Example 224, 7a-(((4-((1R,5S)-3,8-diazabicyclo[3.2.1]octan-3-yl)-7-(8-chloronaphthalen-1-yl)-8-fluoropyrido[4,3-d]pyrimidin-2-yl)oxy)methyl)hexahydro-1H-pyrrolizin-2-ol bis-hydrochloride], the pIC50 was 5.20.
`Fc1c(-c2cccc3cccc(Br)c23)ncc2c(N3C[C@H]4CC[C@@H](C3)N4)nc(OCC34CCCN3CCC4)nc12` [Example 235, 4-((1R,5S)-3,8-diazabicyclo[3.2.1]octan-3-yl)-7-(8-bromonaphthalen-1-yl)-8-fluoro-2-((tetrahydro-1H-pyrrolizin-7a(5H)-yl)methoxy)pyrido[4,3-d]pyrimidine] gave a pIC50 of 6.47.
In the case of `Oc1cc(-c2ncc3c(N4C[C@H]5CC[C@@H](C4)N5)nc(OCC45CCCN4C(CF)CC5)nc3c2F)c2c(Cl)cccc2c1` (stereo partly drawn) [Example 400, 4-(4-((1R,5S)-3,8-diazabicyclo[3.2.1]octan-3-yl)-8-fluoro-2-((3-(fluoromethyl)tetrahydro-1H-pyrrolizin-7a(5H)-yl)methoxy)pyrido[4,3-d]pyrimidin-7-yl)-5-chloronaphthalen-2-ol], the pIC50 was 6.58.
`OCc1cccc2cccc(-c3ncc4c(N5C[C@H]6CC[C@@H](C5)N6)nc(OCC56CCCN5CCC6)nc4c3F)c12` [Example 238, (8-(4-((1R,5S)-3,8-diazabicyclo[3.2.1]octan-3-yl)-8-fluoro-2-((tetrahydro-1H-pyrrolizin-7a(5H)-yl)methoxy)pyrido[4,3-d]pyrimidin-7-yl)naphthalen-1-yl)methanol] was tested, and the pIC50 was 5.33.
In the case of `NC(=O)Cc1cccc2cccc(-c3ncc4c(N5C[C@H]6CC[C@@H](C5)N6)nc(OCC56CCCN5CCC6)nc4c3F)c12` [Example 240, 2-(8-(4-((1R,5S)-3,8-diazabicyclo[3.2.1]octan-3-yl)-8-fluoro-2-((tetrahydro-1H-pyrrolizin-7a(5H)-yl)methoxy)pyrido[4,3-d]pyrimidin-7-yl)naphthalen-1-yl)acetamide], the pIC50 was < 4.78.
In the case of `Fc1c(-c2cccc3cccc(OC(F)F)c23)ncc2c(N3C[C@H]4CC[C@@H](C3)N4)nc(OCC34CCCN3CCC4)nc12` [Example 346, 4-((1R,5S)-3,8-diazabicyclo[3.2.1]octan-3-yl)-7-(8-(difluoromethoxy)naphthalen-1-yl)-8-fluoro-2-((tetrahydro-1H-pyrrolizin-7a(5H)-yl)methoxy)pyrido[4,3-d]pyrimidine], the pIC50 was 5.87.
Compound `O[C@H]1CN2CCC[C@@]2(COc2nc(N3CC4CCC(C3)N4)c3cnc(-c4cccc5cccc(Cl)c45)c(F)c3n2)C1` [Example 223, 7a-(((4-((1R,5S)-3,8-diazabicyclo[3.2.1]octan-3-yl)-7-(8-chloronaphthalen-1-yl)-8-fluoropyrido[4,3-d]pyrimidin-2-yl)oxy)methyl)hexahydro-1H-pyrrolizin-2-ol bis-2,2,2-trifluoroacetate] has a pIC50 of 5.37.
`CC(C)(C)[Si](C)(C)OCC1CCC2(COc3nc(N4C[C@H]5CC[C@@H](C4)N5)c4cnc(-c5cccc6cccc(Cl)c56)c(F)c4n3)CCCN12` (stereo partly drawn) [Example 64, 4-((1R,5S)-3,8-diazabicyclo[3.2.1]octan-3-yl)-2-((3-(((tert-butyldimethylsilyl)oxy)methyl)tetrahydro-1H-pyrrolizin-7a(5H)-yl)methoxy)-7-(8-chloronaphthalen-1-yl)-8-fluoropyrido[4,3-d]pyrimidine] was tested, and the pIC50 was 5.40.
`Cc1ccc2[nH]ncc2c1-c1ncc2c(N3CC4CCC(C3)N4)nc(OCC34CCCN3C[C@H](F)C4)nc2c1F` (mixture of isomers) [Example 331, 4-((1R,5S)-3,8-diazabicyclo[3.2.1]octan-3-yl)-8-fluoro-2-((2-fluorotetrahydro-1H-pyrrolizin-7a(5H)-yl)methoxy)-7-(5-methyl-1H-indazol-4-yl)pyrido[4,3-d]pyrimidine] showed a pIC50 of 4.97.
